The source of these data is patent EP0010119A1, “Isoquinoline derivatives, their preparation and pharmaceutical compositions containing these compounds” (THE MASSACHUSETTS GENERAL HOSPITAL, priority 1978, dated 1980).

Experiment [1] has as its system twitch response of the tibialis anterior muscle. Nature of the experiment: Neuromuscular block of the twitch response of the tibialis anterior muscle in anesthetized monkeys. It counts as in vivo, RHESUS MONKEY.
For experiment [2], the system named is skeletal muscle relaxation. The conditions noted are these: in vivo; cited from earlier work.
The mark [3] stands for this setting: time span from drug injection to full recovery of the twitch response, halothane, nitrous oxide and oxygen anesthesia, 4 animals per compound.

For the compound `COc1ccc(CC2c3cc(OC)c(OC)cc3CC[N+]2(C)CCCOC(=O)C=Cc2ccc(C=CC(=O)OCCC[N+]3(C)CCc4cc(OC)c(OC)cc4C3Cc3ccc(OC)c(OC)c3)cc2)cc1OC` (stereo not shown) [GG195, Bis-3-[N-methyl-1-(3,4-dimethoxybenzyl) 6,7-dimethoxy-1,2,3,4-tetrahydroisoquinolinium] propyl p-phenylene-3,3'-diacrylate dichlorid], the “Range of dupation of action (minutes from injection to full recovery)” value (shortened to “Range of dupation of action”) in experiment [1] (setting [3]) was 15 to 30 min.

Regarding `COc1cc2c(cc1OC)C(Cc1cc(OC)c(OC)c(OC)c1)[N+](C)(CCCOC(=O)C=Cc1ccc(C=CC(=O)OCCC[N+]3(C)CCc4cc(OC)c(OC)cc4C3Cc3cc(OC)c(OC)c(OC)c3)cc1)CC2` (stereo not drawn) [HH109, Bis-3-[N-methyl-l-(3,4,5-trimethoxybenzyl)] 6,7-dimethoxy-1,2,3,4-tetrahydroisoquinolinium propyl p-phenylene-3,3'-diacrylate dichloride], in experiment [1] (setting [3]), the “Range of dupation of action” value lay within 20 to 30 min.

Consider `COc1ccc(CC2c3cc(OC)c(OC)cc3CC[N+]2(C)CCCOC(=O)Cc2ccc(CC(=O)OCCC[N+]3(C)CCc4cc(OC)c(OC)cc4C3Cc3ccc(OC)c(OC)c3)cc2)cc1OC` (stereo not shown) [KK100], for which, in experiment [1] (setting [3]), the “Range of dupation of action” value lay in the range of 10 to 20 min.

For the compound `COc1cc2c(cc1OC)C(Cc1cc(OC)c(OC)c(OC)c1)[N+](C)(CCCOC(=O)Cc1ccc(CC(=O)OCCC[N+]3(C)CCc4cc(OC)c(OC)cc4C3Cc3cc(OC)c(OC)c(OC)c3)cc1)CC2` (stereo not shown) [LL46, Bis-3-(N-methyl-1-(3,4,5-trimethoxybenzyl) 6,7-dimethoxy-1,2,3,4-tetrahydroisoquinolinium) propyl p-phenylene-3,3'-diacetate dichloride], the “Range of dupation of action” value in experiment [1] (setting [3]) lay within 15 to 25 min.

Turning to `C[N+](C)(C)CCOC(=O)CCC(=O)OCC[N+](C)(C)C` [Succinyl-choline, succinylcholine chloride], in experiment [1] (rhesus monkey, in vivo), the ED95 is recorded as 1,0 - 2,0 MG/NG cation and the “Range of dupation of action” value was in the range of 4 to 6 min. The duration of action in experiment [2] is 5 to 15 min.

Take `C[N+](C)(C)CCCCCCCCCC[N+](C)(C)C` [decamethonium]: in experiment [2], the duration of action is 20 to 40 min.

Consider `COc1cc2c3cc1Oc1cc(ccc1O)C[C@@H]1c4c(cc(OC)c(O)c4Oc4ccc(cc4)C[C@@H]3N(C)CC2)CC[N+]1(C)C.Cl.O.O.O.O.O.[Cl-]` [l-Tube-curarine, d-tubocurarine chloride], for which the ED95 in experiment [1] (dose range to produce 95 per cent block of the twitch response, muscle stimulated indirectly at 0,15 Hz via the sciatic nerve, halothane, nitrous oxide and oxygen anesthesia, 4 animals per compound) is 0,2 - 0,4 MG/NG cation. Further, the “Range of dupation of action” value in experiment [1] (setting [3]) lay within 30 to 50 min.
